Measurements taken from publication PMC4685510, “A Cell Biologist’s Field Guide to Aurora Kinase Inhibitors” (Frontiers in Oncology, 2015).

Experiments:
Assay in all cases: biochemical
Assay type in all cases: biochemical
[1] = molecular target: T1, 363 human kinases (including Aurora A/B/C) (Homo sapiens, UniProt P29322); conditions: EPHA8, [ATP] 100 µM; for remaining activity at 0.1 µM: 100 nM; for remaining activity at 0.1 µM / remaining activity at 0.5 µM: read-out: % Enzyme Activity (relative to DMSO controls)
T1 sequence (P29322 28-1005): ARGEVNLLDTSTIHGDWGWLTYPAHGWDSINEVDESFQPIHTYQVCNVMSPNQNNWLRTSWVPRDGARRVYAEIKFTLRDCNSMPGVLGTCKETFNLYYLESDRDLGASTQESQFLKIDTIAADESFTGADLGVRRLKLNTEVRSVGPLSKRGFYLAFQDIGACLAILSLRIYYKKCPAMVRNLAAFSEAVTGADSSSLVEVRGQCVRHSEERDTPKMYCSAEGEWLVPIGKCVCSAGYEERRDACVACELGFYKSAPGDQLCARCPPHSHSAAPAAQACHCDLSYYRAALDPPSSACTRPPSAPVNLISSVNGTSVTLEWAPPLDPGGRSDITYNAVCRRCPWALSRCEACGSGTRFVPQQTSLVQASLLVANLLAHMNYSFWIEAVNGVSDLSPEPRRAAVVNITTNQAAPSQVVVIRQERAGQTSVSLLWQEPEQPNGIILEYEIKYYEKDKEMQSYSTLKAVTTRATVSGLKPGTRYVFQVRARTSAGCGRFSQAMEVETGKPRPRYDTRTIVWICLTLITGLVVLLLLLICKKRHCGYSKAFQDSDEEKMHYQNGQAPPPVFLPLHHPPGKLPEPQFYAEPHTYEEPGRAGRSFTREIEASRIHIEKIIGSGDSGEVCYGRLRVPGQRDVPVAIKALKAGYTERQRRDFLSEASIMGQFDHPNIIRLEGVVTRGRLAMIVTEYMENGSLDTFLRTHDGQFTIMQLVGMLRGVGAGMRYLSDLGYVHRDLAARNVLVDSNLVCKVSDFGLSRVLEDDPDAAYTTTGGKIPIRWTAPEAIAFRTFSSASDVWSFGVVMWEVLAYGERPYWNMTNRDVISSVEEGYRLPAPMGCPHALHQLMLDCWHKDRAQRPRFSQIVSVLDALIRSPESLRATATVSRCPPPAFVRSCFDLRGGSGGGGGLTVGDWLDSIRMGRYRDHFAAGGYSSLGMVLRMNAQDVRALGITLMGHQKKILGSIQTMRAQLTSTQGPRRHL
Excerpt: (§1) However, the Aurora A/B selectivity ratios derived from our in vitro and in vivo data can be compared to prioritize inhibitors.

[2] = molecular target: 363 human kinases (including Aurora A/B/C) (Homo sapiens, UniProt P35968); conditions: KDR/VEGFR2; for remaining activity at 0.1 µM: 100 nM; for remaining activity at 0.1 µM / remaining activity at 0.5 µM: read-out: % Enzyme Activity (relative to DMSO controls)
363 human kinases (including Aurora A/B/C) (Homo sapiens, UniProt P35968), sequence (P35968 20-1356): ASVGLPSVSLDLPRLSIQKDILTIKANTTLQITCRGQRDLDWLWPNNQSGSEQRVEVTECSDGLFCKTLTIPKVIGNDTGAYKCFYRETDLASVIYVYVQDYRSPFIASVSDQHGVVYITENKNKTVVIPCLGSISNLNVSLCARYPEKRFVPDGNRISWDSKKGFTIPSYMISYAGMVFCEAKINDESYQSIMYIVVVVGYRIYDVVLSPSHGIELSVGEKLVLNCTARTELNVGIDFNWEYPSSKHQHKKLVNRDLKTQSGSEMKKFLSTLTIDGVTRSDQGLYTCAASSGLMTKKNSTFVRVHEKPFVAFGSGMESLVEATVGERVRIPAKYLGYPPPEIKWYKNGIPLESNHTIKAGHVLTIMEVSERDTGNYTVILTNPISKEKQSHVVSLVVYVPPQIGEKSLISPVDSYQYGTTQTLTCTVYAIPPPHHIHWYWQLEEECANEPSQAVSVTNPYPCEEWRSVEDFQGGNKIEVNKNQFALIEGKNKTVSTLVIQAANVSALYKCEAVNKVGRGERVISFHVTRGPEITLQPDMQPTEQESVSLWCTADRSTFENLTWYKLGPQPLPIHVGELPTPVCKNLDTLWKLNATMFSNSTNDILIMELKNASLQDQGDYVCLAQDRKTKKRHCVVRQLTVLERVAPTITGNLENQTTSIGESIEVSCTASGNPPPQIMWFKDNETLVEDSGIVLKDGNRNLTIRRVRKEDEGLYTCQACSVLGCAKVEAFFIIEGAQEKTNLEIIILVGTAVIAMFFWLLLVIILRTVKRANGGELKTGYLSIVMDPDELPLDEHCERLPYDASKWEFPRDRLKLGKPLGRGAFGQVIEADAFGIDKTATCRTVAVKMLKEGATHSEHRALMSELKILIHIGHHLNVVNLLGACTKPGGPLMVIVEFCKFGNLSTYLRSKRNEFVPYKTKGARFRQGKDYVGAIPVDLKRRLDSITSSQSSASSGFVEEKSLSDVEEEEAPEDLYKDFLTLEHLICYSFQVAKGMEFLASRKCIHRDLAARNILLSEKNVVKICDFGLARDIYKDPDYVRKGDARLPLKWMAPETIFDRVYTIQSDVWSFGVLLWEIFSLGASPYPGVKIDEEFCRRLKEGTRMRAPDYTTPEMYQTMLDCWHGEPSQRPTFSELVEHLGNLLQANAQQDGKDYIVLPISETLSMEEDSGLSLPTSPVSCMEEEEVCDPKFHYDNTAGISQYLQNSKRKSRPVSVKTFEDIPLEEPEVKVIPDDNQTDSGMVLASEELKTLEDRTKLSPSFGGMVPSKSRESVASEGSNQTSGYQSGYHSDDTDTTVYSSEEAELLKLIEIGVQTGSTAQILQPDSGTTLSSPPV
Excerpt: as §1

[3] = molecular target: 363 human kinases (including Aurora A/B/C) (Homo sapiens, UniProt Q08345); conditions: DDR1, [ATP] 100 µM; for remaining activity at 0.1 µM: 100 nM; for remaining activity at 0.1 µM / remaining activity at 0.5 µM: read-out: % Enzyme Activity (relative to DMSO controls)
363 human kinases (including Aurora A/B/C) (Homo sapiens, UniProt Q08345), sequence (Q08345 19-913): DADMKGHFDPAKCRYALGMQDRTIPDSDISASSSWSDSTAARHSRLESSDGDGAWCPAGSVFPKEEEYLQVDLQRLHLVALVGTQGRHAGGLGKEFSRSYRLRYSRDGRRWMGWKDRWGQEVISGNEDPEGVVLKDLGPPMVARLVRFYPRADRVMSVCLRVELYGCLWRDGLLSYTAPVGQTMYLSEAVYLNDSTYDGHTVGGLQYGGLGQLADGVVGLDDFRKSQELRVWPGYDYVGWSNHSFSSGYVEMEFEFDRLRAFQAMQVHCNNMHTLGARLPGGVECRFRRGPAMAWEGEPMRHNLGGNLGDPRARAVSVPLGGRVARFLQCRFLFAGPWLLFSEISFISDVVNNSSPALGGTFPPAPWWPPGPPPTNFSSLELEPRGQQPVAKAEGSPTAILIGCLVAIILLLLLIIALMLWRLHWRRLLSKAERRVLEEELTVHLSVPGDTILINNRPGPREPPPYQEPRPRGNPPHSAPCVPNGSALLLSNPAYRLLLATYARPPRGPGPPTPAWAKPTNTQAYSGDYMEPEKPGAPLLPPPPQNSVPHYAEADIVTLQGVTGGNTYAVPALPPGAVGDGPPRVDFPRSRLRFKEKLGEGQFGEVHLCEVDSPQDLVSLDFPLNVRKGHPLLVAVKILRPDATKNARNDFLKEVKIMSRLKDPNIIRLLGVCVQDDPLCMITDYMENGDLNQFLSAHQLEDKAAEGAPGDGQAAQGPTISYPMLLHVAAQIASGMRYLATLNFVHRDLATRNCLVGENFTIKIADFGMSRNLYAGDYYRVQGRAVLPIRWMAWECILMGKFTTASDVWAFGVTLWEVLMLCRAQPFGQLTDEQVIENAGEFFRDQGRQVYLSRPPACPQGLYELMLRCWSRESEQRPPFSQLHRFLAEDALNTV
Excerpt: as §1

[4] = molecular target: T2, 363 human kinases (including Aurora A/B/C) (Homo sapiens, UniProt Q12851); conditions: GCK/MAP4K2; for remaining activity at 0.1 µM: 100 nM; for remaining activity at 0.1 µM / remaining activity at 0.5 µM: read-out: % Enzyme Activity (relative to DMSO controls)
T2 sequence (Q12851 1-820): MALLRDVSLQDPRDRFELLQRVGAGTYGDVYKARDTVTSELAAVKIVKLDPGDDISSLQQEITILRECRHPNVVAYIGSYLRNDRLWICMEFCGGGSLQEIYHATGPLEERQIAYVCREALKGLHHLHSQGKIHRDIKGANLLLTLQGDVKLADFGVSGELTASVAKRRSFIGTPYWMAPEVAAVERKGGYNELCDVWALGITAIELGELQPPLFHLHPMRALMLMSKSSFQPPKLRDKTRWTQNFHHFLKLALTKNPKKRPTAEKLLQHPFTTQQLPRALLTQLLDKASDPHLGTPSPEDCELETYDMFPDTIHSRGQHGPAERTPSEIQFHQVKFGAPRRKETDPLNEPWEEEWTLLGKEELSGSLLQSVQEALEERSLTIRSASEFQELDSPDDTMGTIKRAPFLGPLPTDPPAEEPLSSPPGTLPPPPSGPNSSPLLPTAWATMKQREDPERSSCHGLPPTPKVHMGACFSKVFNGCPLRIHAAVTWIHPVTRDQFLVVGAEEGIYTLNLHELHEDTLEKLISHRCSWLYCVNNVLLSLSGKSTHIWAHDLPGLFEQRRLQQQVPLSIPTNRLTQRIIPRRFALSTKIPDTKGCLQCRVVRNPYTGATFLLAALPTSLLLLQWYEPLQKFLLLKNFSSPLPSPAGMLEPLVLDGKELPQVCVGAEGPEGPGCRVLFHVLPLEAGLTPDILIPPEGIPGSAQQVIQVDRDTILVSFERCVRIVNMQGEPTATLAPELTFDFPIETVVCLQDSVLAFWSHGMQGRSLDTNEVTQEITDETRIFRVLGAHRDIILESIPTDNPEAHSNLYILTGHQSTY
Excerpt: as §1

[5] = molecular target: 363 human kinases (including Aurora A/B/C) (Homo sapiens, UniProt Q13164); conditions: ERK5/MAPK7, [ATP] 5 µM; for remaining activity at 0.1 µM: 100 nM; for remaining activity at 0.1 µM / remaining activity at 0.5 µM: read-out: % Enzyme Activity (relative to DMSO controls)
Excerpt: as §1

[6] = molecular target: 363 human kinases (including Aurora A/B/C) (Homo sapiens, UniProt Q14012); conditions: CAMK1a, [ATP] 20 µM; for remaining activity at 0.1 µM: 100 nM; for remaining activity at 0.1 µM / remaining activity at 0.5 µM: read-out: % Enzyme Activity (relative to DMSO controls)
363 human kinases (including Aurora A/B/C) (Homo sapiens, UniProt Q14012), sequence (Q14012 whole entry): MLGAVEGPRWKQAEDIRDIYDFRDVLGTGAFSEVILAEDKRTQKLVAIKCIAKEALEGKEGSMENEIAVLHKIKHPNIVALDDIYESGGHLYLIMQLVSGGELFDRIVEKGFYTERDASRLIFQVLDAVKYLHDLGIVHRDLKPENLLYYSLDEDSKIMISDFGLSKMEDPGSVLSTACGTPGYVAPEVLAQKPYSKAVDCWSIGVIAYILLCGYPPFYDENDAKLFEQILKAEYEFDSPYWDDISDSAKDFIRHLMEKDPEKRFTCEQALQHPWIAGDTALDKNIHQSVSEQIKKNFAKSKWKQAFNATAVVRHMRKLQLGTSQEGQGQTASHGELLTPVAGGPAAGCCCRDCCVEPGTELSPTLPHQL
Excerpt: as §1

[7] = molecular target: 363 human kinases (including Aurora A/B/C) (Homo sapiens, UniProt Q96NX5); conditions: CAMK1g, [ATP] 30 µM; for remaining activity at 0.1 µM: 100 nM; for remaining activity at 0.1 µM / remaining activity at 0.5 µM: read-out: % Enzyme Activity (relative to DMSO controls)
363 human kinases (including Aurora A/B/C) (Homo sapiens, UniProt Q96NX5), sequence (Q96NX5 whole entry): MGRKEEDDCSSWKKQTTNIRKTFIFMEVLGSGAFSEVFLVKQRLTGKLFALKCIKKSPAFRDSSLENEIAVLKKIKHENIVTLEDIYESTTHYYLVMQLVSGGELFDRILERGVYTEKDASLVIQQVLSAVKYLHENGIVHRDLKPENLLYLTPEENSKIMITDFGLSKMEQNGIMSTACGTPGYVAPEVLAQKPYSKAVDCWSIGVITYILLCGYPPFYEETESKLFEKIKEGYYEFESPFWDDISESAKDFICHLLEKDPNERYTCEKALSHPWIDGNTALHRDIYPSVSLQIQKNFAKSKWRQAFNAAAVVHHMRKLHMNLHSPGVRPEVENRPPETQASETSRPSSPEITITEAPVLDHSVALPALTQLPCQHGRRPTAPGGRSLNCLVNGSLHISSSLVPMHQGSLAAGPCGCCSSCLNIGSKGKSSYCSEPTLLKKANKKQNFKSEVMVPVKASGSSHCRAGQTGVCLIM
Excerpt: as §1

[8] = molecular target: 363 human kinases (including Aurora A/B/C) (Homo sapiens, UniProt Q9H2X6); conditions: HIPK2; for remaining activity at 0.1 µM: 100 nM; for remaining activity at 0.1 µM / remaining activity at 0.5 µM: read-out: % Enzyme Activity (relative to DMSO controls)
363 human kinases (including Aurora A/B/C) (Homo sapiens, UniProt Q9H2X6), sequence (Q9H2X6 whole entry): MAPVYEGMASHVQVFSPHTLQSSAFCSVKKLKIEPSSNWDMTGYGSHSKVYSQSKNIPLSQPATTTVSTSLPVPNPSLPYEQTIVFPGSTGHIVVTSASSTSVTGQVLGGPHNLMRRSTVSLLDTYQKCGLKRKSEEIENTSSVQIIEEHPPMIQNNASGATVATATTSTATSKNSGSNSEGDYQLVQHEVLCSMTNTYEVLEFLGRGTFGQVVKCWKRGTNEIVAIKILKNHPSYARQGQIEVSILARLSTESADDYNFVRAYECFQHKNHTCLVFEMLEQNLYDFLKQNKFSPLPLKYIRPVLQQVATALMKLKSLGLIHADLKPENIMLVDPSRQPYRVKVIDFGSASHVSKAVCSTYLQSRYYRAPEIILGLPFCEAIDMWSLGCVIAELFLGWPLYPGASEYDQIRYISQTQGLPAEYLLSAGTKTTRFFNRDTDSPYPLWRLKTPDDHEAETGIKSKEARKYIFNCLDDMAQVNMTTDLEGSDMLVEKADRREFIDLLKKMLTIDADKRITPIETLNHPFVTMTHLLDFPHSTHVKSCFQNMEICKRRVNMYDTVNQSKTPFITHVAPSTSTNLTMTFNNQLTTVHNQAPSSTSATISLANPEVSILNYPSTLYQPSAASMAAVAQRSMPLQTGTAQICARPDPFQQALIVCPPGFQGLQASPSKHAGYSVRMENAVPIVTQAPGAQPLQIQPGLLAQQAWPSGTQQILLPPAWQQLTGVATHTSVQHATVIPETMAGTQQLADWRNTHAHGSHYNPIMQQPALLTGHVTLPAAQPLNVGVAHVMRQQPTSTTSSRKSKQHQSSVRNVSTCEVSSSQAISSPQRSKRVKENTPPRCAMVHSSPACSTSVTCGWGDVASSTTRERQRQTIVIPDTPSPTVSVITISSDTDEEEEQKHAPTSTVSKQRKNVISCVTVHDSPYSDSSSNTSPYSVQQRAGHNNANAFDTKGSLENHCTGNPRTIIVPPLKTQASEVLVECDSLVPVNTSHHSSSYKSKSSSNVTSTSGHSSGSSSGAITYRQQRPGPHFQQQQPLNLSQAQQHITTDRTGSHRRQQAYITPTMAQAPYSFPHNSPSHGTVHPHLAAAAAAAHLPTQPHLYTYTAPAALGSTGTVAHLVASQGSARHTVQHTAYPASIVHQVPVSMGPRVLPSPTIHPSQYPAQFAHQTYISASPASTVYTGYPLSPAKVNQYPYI
Excerpt: as §1

[9] = molecular target: 363 human kinases (including Aurora A/B/C) (Homo sapiens, UniProt Q9UIK4); conditions: DAPK2, [ATP] 5 µM; for remaining activity at 0.1 µM: 100 nM; for remaining activity at 0.1 µM / remaining activity at 0.5 µM: read-out: % Enzyme Activity (relative to DMSO controls)
363 human kinases (including Aurora A/B/C) (Homo sapiens, UniProt Q9UIK4), sequence (Q9UIK4 whole entry): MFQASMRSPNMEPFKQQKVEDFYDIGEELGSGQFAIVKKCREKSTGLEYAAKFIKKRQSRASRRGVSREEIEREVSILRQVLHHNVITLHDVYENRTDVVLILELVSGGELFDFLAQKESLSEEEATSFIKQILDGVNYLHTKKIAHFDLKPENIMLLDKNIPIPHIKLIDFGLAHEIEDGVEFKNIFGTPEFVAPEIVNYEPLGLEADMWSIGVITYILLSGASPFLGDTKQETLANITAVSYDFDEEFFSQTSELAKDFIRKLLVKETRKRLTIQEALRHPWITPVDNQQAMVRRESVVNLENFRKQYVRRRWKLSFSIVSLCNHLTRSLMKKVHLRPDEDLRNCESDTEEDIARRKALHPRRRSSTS
Excerpt: as §1

Row | Structure (SMILES) | remaining activity at 0.1 µM [1] | remaining activity at 0.1 µM [2] | remaining activity at 0.1 µM [3] | remaining activity at 0.1 µM [4] | remaining activity at 0.1 µM [5] | remaining activity at 0.1 µM [6] | remaining activity at 0.1 µM [7] | remaining activity at 0.1 µM [8] | remaining activity at 0.1 µM [9] | remaining activity at 0.5 µM ([1]; 500 nM) | remaining activity at 0.5 µM ([2]; 500 nM) | remaining activity at 0.5 µM ([3]; 500 nM) | remaining activity at 0.5 µM ([4]; 500 nM) | remaining activity at 0.5 µM ([5]; 500 nM) | remaining activity at 0.5 µM ([6]; 500 nM) | remaining activity at 0.5 µM ([7]; 500 nM) | remaining activity at 0.5 µM ([8]; 500 nM) | remaining activity at 0.5 µM ([9]; 500 nM) | further results
1 | CCn1cc(-c2ccnc3[nH]c(-c4cccc(CN(C)C)c4)cc23)c(-c2ccc(NC(=O)N(C)C)cc2)n1 [GSK1070916] | 92% | 87.5% | 26.2% | 91.1% | 97.6% | 98.6% | 96.3% | 104% | 111% | – | – | – | – | – | – | – | – | – | –
2 | O=C(O)[C@]1(Cc2cccc(Nc3nccs3)n2)CC[C@@H](Oc2cccc(Cl)c2F)CC1 [MK-5108] | 88.7% | 36.8% | 7.97% | 97.2% | 95.3% | 102% | 100% | 89.2% | 103% | 67.9% | 13.1% | 1.89% | 69.4% | 95.4% | 97.1% | 93.7% | 50% | 111% | –
3 | O=C(c1cccc(Cl)c1F)N1CCN(Cc2cccc(Nc3nccs3)n2)CC1 [MK-8745] | – | – | – | – | – | – | – | – | – | 86.1% | 96.7% | 19.7% | 93.7% | 89% | 95.5% | 91.9% | 106% | 105% | % Enzyme Activity (relative to DMSO controls) ([1]; 500 nM): 85.09%; % Enzyme Activity (relative to DMSO controls) ([2]; 500 nM): 96.11%; % Enzyme Activity (relative to DMSO controls) ([3]; 500 nM): 19.23%; % Enzyme Activity (relative to DMSO controls) ([4]; 500 nM): 91.89%; % Enzyme Activity (relative to DMSO controls) ([5]; 500 nM): 88.71%; % Enzyme Activity (relative to DMSO controls) ([6]; 500 nM): 94.06%; % Enzyme Activity (relative to DMSO controls) ([7]; 500 nM): 91.44%; % Enzyme Activity (relative to DMSO controls) ([8]; 500 nM): 102.33%; % Enzyme Activity (relative to DMSO controls) ([9]; 500 nM): 102.56%
